According to US8822503B2, “2-pyridone compounds” (Taisho Pharmaceutical Co., Ltd, priority 2009, dated 2014):
pEC50: −log10 of the molar value.

Target: T1, human liver GK (Homo sapiens, UniProt P35557)
T1 construct: GST (glutathione S-transferase) (N); made in house; host or cells: E. coli
T1 sequence (P35557 1-466 isoform P35557-2): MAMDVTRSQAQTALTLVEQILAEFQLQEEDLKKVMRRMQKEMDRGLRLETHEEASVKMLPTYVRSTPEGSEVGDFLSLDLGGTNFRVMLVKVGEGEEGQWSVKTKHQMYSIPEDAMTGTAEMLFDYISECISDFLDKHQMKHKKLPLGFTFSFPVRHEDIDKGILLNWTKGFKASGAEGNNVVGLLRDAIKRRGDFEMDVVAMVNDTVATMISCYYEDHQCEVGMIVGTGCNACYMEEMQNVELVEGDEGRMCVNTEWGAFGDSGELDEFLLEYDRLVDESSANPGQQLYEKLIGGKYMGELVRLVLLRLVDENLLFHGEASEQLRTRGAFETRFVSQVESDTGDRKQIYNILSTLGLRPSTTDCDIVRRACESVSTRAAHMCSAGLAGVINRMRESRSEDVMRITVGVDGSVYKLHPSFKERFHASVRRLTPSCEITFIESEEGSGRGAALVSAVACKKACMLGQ
Experiment: GK activation test
Format: biochemical
Settings: test compound concentration needed to activate 50% of maximum activation ability; 4 mM 14C-labeled glucose, 2 mM ATP, room temperature, 20 minutes
How it was run: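 GST-tagged human liver GK from E. coli (0.24 μg/well) with 4 mM 14C-glucose, 2 mM ATP in Hepes-KOH pH 7.1, KCl, MgCl2, DTT, 1% DMSO, 20 min room temperature. Labeled glucose 6-phosphate captured on anion resin, eluted and counted. EC50 = concentration giving half of maximal activation.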

SMILES | pEC50
O=C1CC[C@H](/C=C(\c2ccc(CO)cc2)c2ccc(Cl)c(=O)[nH]2)N1 [Example 4-277, 3-Chloro-6-{(E)-1-[4-(hydroxymethyl)phenyl]-2-[(2R)-5-oxopyrrolidin-2-yl]ethenyl}pyridin-2(1H)-one] | 5.00 to 5.52
CCCOc1ccc(/C(=C\[C@H]2CCC(=O)N2)c2ccc(C3CC3)c(=O)[nH]2)cc1 [Example 4-279, 3-Cyclopropyl-6-[(E)-2-[(2R)-5-oxopyrrolidin-2-yl]-1-(4-propoxyphenyl)ethenyl]pyridin-2(1H)-one] | 6.30 to 8.00
CCCOc1ccc(/C(=C\[C@H]2CCC(=O)N2)c2ccc(C3CC3)c(=O)[nH]2)cc1Cl [Example 4-280, 6-{(E)-1-(3-Chloro-4-propoxyphenyl)-2-[(2R)-5-oxopyrrolidin-2-yl]ethenyl}-3-cyclopropylpyridin-2(1H)-one] | 6.30 to 8.00
O=C1CC[C@H](/C=C(\c2ccc(OC(F)F)c(Cl)c2)c2ccc(C3CC3)c(=O)[nH]2)N1 [Example 4-281, 6-{(E)-1-[3-Chloro-4-(difluoromethoxy)phenyl]-2-[(2R)-5-oxopyrrolidin-2-yl]ethenyl}-3-cyclopropylpyridin-2(1H)-one] | 6.30 to 8.00
CCOc1ccc(/C(=C\[C@H]2CCC(=O)N2)c2ccc(C3CC3)c(=O)[nH]2)c(F)c1F [Example 4-282, 3-Cyclopropyl-6-{(E)-1-(4-ethoxy-2,3-difluorophenyl)-2-[(2R)-5-oxopyrrolidin-2-yl]ethenyl}pyridin-2(1H)-one] | 6.30 to 8.00
O=C1CC[C@H](/C=C(\c2ccc(OC3CCCC3)cc2)c2ccc(C3CC3)c(=O)[nH]2)N1 [Example 4-283, 6-{(E)-1-[4-(Cyclopentyloxy)phenyl]-2-[(2R)-5-oxopyrrolidin-2-yl]ethenyl}-3-cyclopropylpyridin-2(1H)-one] | 6.30 to 8.00
CCOc1ccc(/C(=C\[C@H]2CCC(=O)N2)c2ccc(C3CC3)c(=O)[nH]2)cc1F [Example 4-284, 3-Cyclopropyl-6-{(E)-1-(4-ethoxy-3-fluorophenyl)-2-[(2R)-5-oxopyrrolidin-2-yl]ethenyl}pyridin-2(1H)-one] | 6.30 to 8.00
N#Cc1ccc(/C(=C\[C@H]2CCC(=O)N2)c2ccc(C3CC3)c(=O)[nH]2)cc1 [Example 4-285, 4-{(E)-1-(5-Cyclopropyl-6-oxo-1,6-dihydropyridin-2-yl)-2-[(2R)-5-oxopyrrolidin-2-yl]ethenyl}benzonitrile] | 5.52 to 6.30
CCOc1ccc(/C(=C\[C@H]2CCC(=O)N2)c2ccc(C3CC3)c(=O)[nH]2)c(Cl)c1 [Example 4-286, 6-{(E)-1-(2-Chloro-4-ethoxyphenyl)-2-[(2R)-5-oxopyrrolidin-2-yl]ethenyl}-3-cyclopropylpyridin-2(1H)-one] | 6.30 to 8.00
O=C1CC[C@H](/C=C(\c2ccc(OCCF)cc2)c2ccc(C3CC3)c(=O)[nH]2)N1 [Example 4-287, 3-Cyclopropyl-6-{(E)-1-[4-(2-fluoroethoxy)phenyl]-2-[(2R)-5-oxopyrrolidin-2-yl]ethenyl}pyridin-2(1H)-one] | 6.30 to 8.00
N#Cc1cc(/C(=C\[C@H]2CCC(=O)N2)c2ccc(C3CC3)c(=O)[nH]2)ccc1F [Example 4-288, 5-{(E)-1-(5-Cyclopropyl-6-oxo-1,6-dihydropyridin-2-yl)-2-[(2R)-5-oxopyrrolidin-2-yl]ethenyl}-2-fluorobenzonitrile] | 5.00 to 5.52
O=C1CC[C@H](/C=C(\c2ccc(S(=O)(=O)C3CC3)c(Cl)c2)c2ccc(C3CC3)c(=O)[nH]2)N1 [Example 4-289, 6-{(E)-1-[3-Chloro-4-(cyclopropylsulfonyl)phenyl]-2-[(2R)-5-oxopyrrolidin-2-yl]ethenyl}-3-cyclopropylpyridin-2(1H)-one] | 6.30 to 8.00
O=C1CC[C@H](/C=C(\c2ccc(S(=O)(=O)C3CC3)cc2)c2ccc(C3CC3)c(=O)[nH]2)N1 [Example 4-290, 3-Cyclopropyl-6-{(E)-1-[4-(cyclopropylsulfonyl)phenyl]-2-[(2R)-5-oxopyrrolidin-2-yl]ethenyl}pyridin-2(1H)-one] | 6.30 to 8.00
O=C1CC[C@H](/C=C(\c2ccc(S(=O)(=O)Cc3ccccc3)cc2)c2ccc(C3CC3)c(=O)[nH]2)N1 [Example 4-291, 6-{(E)-1-[4-(Benzylsulfonyl)phenyl]-2-[(2R)-5-oxopyrrolidin-2-yl]ethenyl}-3-cyclopropylpyridin-2(1H)-one] | 6.30 to 8.00
CN(C)S(=O)(=O)c1ccc(/C(=C\[C@H]2CCC(=O)N2)c2ccc(C3CC3)c(=O)[nH]2)cc1 [Example 4-292, 4-{(E)-1-(5-Cyclopropyl-6-oxo-1,6-dihydropyridin-2-yl)-2-[(2R)-5-oxopyrrolidin-2-yl]ethenyl}-N,N-dimethylbenzenesulfonamide] | 6.30 to 8.00
O=C1CC[C@H](/C=C(\c2ccc(S(=O)(=O)Cc3ccccc3)c(Cl)c2)c2ccc(C3CC3)c(=O)[nH]2)N1 [Example 4-293, 6-{(E)-1-[4-(Benzylsulfonyl)-3-chlorophenyl]-2-[(2R)-5-oxopyrrolidin-2-yl]ethenyl}-3-cyclopropylpyridin-2(1H)-one] | 6.30 to 8.00

SMILES | pEC50
CC(C)(C)c1ccc(C(C[C@H]2CCC(=O)N2)c2ccc(C3CC3)c(=O)[nH]2)cc1 (stereo partly drawn) [Example 4-358, 6-{1-(4-tert-Butylphenyl)-2-[(2R)-5-oxopyrrolidin-2-yl]ethyl}-3-cyclopropylpyridin-2(1H)-one] | 6.30 to 8.00
O=C1CC[C@H](/C=C(\c2ccc(Cl)cc2)c2ccc(-c3cn[nH]c3)c(=O)[nH]2)N1 [Example 4-359, 6-{(E)-1-(4-Chlorophenyl)-2-[(2R)-5-oxopyrrolidin-2-yl]ethenyl}-3-(1H-pyrazol-4-yl)pyridin-2(1H)-one] | 6.30 to 8.00
O=C1CC[C@H](/C=C(\c2ccc(C(F)(F)F)cc2)c2ccc(-c3cn[nH]c3)c(=O)[nH]2)N1 [Example 4-360, 6-{(E)-2-[(2R)-5-Oxopyrrolidin-2-yl]-1-[4-(trifluoromethyl)phenyl]ethenyl}-3-(1H-pyrazol-4-yl)pyridin-2(1H)-one] | 6.30 to 8.00
CC(C)(C)c1ccc(/C(=C\[C@H]2CCC(=O)N2)c2ccc(-c3cn[nH]c3)c(=O)[nH]2)cc1 [Example 4-361, 6-{(E)-1-(4-tert-Butylphenyl)-2-[(2R)-5-oxopyrrolidin-2-yl]ethenyl}-3-(1H-pyrazol-4-yl)pyridin-2(1H)-one] | 6.30 to 8.00
Cc1ccc(/C(=N/OC2CCCC2)c2ccc(S(C)(=O)=O)cc2)[nH]c1=O [Example 5-3, (E)-6-{(Cyclopentyloxyimino)[4-(methylsulfonyl)phenyl]methyl}-3-methylpyridin-2(1H)-one] | 5.00 to 5.52
CC(C)(C)c1ccc(/C(=C\CO)c2ccc(Cl)c(=O)[nH]2)cc1 [Example 6-1, 6-[(1E)-1-(4-tert-Butylphenyl)-3-hydroxyprop-1-en-1-yl]-3-chloropyridin-2(1H)-one] | 5.00 to 5.52
CC(C)(C)c1ccc(/C(=C\CN2CCOC2=O)c2ccc(Cl)c(=O)[nH]2)cc1 [Example 6-2, 6-[(1E)-1-(4-tert-Butylphenyl)-3-(2-oxo-1,3-oxazolidin-3-yl)prop-1-en-1-yl]-3-chloropyridin-2(1H)-one] | 6.30 to 8.00
CC(C)(C)c1ccc(/C(=C\CN2CCCC2=O)c2ccc(Cl)c(=O)[nH]2)cc1 [Example 6-3, 6-[(1E)-1-(4-tert-Butylphenyl)-3-(2-oxopyrrolidin-1-yl)prop-1-en-1-yl]-3-chloropyridin-2(1H)-one] | 6.30 to 8.00
CC(C)(C)c1ccc(/C(=C\CN2CCCCC2=O)c2ccc(Cl)c(=O)[nH]2)cc1 [Example 6-4, 6-[(1E)-1-(4-tert-Butylphenyl)-3-(2-oxopiperidin-1-yl)prop-1-en-1-yl]-3-chloropyridin-2(1H)-one] | 5.52 to 6.30
CC(C)(C)c1ccc(/C(=C\CN2CCOCC2)c2ccc(Cl)c(=O)[nH]2)cc1 [Example 6-5, 6-[(1E)-1-(4-tert-Butylphenyl)-3-(morpholin-4-yl)prop-1-en-1-yl]-3-chloropyridin-2(1H)-one] | 5.00 to 5.52
CC(C)(C)c1ccc(/C(=C\CN2CCCCCC2=O)c2ccc(Cl)c(=O)[nH]2)cc1 [Example 6-6, 1-[(2E)-3-(4-tert-Butylphenyl)-3-(5-chloro-6-oxo-1,6-dihydropyridin-2-yl)prop-2-en-1-yl]azepan-2-one] | 5.52 to 6.30
CC(C)(C)c1ccc(/C(=C\CN2CCCS2(=O)=O)c2ccc(Cl)c(=O)[nH]2)cc1 [Example 6-7, 6-[(1E)-1-(4-tert-Butylphenyl)-3-(1,1-dioxido-1,2-thiazolidin-2-yl)prop-1-en-1-yl]-3-chloropyridin-2(1H)-one] | 5.52 to 6.30
CC(C)(C)c1ccc(/C(=C\CN2C(=O)CCC2=O)c2ccc(Cl)c(=O)[nH]2)cc1 [Example 6-9, 1-[(2E)-3-(4-tert-Butylphenyl)-3-(5-chloro-6-oxo-1,6-dihydropyridin-2-yl)prop-2-en-1-yl]pyrrolidine-2,5-dione] | 5.52 to 6.30
CC(C)(C)c1ccc(/C(=C\COc2ccccc2)c2ccc(Cl)c(=O)[nH]2)cc1 [Example 6-10, 6-[(1E)-1-(4-tert-Butylphenyl)-3-phenoxyprop-1-en-1-yl]-3-chloropyridin-2(1H)-one] | 5.52 to 6.30
CC(C)(C)c1ccc(/C(=C\Cn2ccccc2=O)c2ccc(Cl)c(=O)[nH]2)cc1 [Example 6-11, 6-[(1E)-1-(4-tert-Butylphenyl)-3-(2-oxopyridin-1(2H)-yl)prop-1-en-1-yl]-3-chloropyridin-2(1H)-one] | 5.52 to 6.30
